Measured values as given in the supplement of paper PMC10307832.

What was measured:
Test in all cases: relative viability (nuclei count vs DMSO), 5 days (fraction); higher = more cells survive
[1] = compound: C[C@@H](Oc1cc(-c2cnn(C3CCNCC3)c2)cnc1N)c1c(Cl)ccc(F)c1Cl [Crizotinib] + COc1cc2c(Oc3ccc(NC(=O)C4(C(=O)Nc5ccc(F)cc5)CC4)cc3F)ccnc2cc1OCCCN1CCOCC1 [Foretinib] (partner 0.25 µM)
In short: (§1)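 Cells from lung cancer lines were seeded into 1536-well plates and, one day later, dosed by pin tool. Treatments were either a single drug or a fixed dose of an anchor drug with five library-drug doses (not always all listed) in √10 steps. After 5 days, nuclei were stained in a one-step fixation (final 0.05% Triton X-100, 1% formaldehyde, 1 ug/ml Hoechst) and counted on 4× images, and relative viability is the treated-to-vehicle nuclei ratio, as the median of duplicate plates.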

[2] = compound: C[C@@H](Oc1cc(-c2cnn(C3CCNCC3)c2)cnc1N)c1c(Cl)ccc(F)c1Cl [Crizotinib] + CCNC(=O)c1noc(-c2cc(C(C)C)c(O)cc2O)c1-c1ccc(CN2CCOCC2)cc1 [Luminespib] (partner 0.01 µM)
In short: as §1

[3] = compound: C[C@@H](Oc1cc(-c2cnn(C3CCNCC3)c2)cnc1N)c1c(Cl)ccc(F)c1Cl [Crizotinib] + CC1(C)CCC(c2ccc(Cl)cc2)=C(CN2CCN(c3ccc(C(=O)NS(=O)(=O)c4ccc(N[C@H](CCN5CCOCC5)CSc5ccccc5)c(S(=O)(=O)C(F)(F)F)c4)cc3)CC2)C1 [Navitoclax] (partner 0.5 µM)
In short: as §1

[4] = compound: O=C(c1cc(Cc2n[nH]c(=O)c3ccccc23)ccc1F)N1CCN(C(=O)C2CC2)CC1 [Olaparib] + O=C(CCCCCCC(=O)Nc1ccccc1)NO [Vorinostat] (partner 1 µM)
In short: as §1

| Cell Line | relative viability ([1]; first compound 0.01 µM) | relative viability ([1]; first compound 0.03162 µM) | relative viability ([1]; first compound 0.3162 µM) | relative viability ([1]; first compound 1 µM) | relative viability ([2]; first compound 0.01 µM) | relative viability ([2]; first compound 0.03162 µM) | relative viability ([2]; first compound 0.1 µM) | relative viability ([2]; first compound 0.3162 µM) | relative viability ([2]; first compound 1 µM) | relative viability ([3]; first compound 0.01 µM) | relative viability ([3]; first compound 0.03162 µM) | relative viability ([3]; first compound 0.1 µM) | relative viability ([3]; first compound 0.3162 µM) | relative viability ([4]; first compound 0.08 µM) | relative viability ([4]; first compound 0.253 µM) | relative viability ([4]; first compound 2.53 µM) | relative viability ([4]; first compound 8 µM) | relative viability ([1]; first compound 0.1 µM) | relative viability ([3]; first compound 1 µM) |
| --- | --- | --- | --- | --- | --- | --- | --- | --- | --- | --- | --- | --- | --- | --- | --- | --- | --- | --- | --- |
| NCI-H1395 | 0.827 | 0.937 | 0.941 | 0.959 | 0.632 | 0.621 | 0.692 | 0.759 | 0.627 | 1.12 | 0.956 | 1.09 | 1.21 | 0.775 | 0.501 | 0.516 | 0.419 | – | – |
| NCI-H1437 | 1.14 | 1.22 | 1.27 | 1.32 | 1.06 | 1.15 | 1.14 | 1.17 | 1.22 | 1.05 | 1.07 | 1.14 | 1.02 | 0.945 | 0.746 | 0.695 | 0.639 | 1.25 | 1.13 |
| NCI-H1650 | – | 1.1 | 1.07 | 1.43 | 0.165 | 0.193 | 0.202 | 0.18 | 0.206 | 1.1 | 1.15 | 1.08 | 1.2 | 0.531 | 0.522 | 0.671 | 0.476 | 0.949 | 1.13 |
| NCI-H1651 | 0.615 | 0.725 | 0.864 | 0.902 | 0.793 | 0.74 | 0.831 | 1.09 | 0.942 | 0.98 | 1.12 | 0.997 | 1.15 | 0.493 | 0.515 | 0.493 | 0.365 | 0.843 | 1.28 |
| NCI-H1666 | 0.921 | 0.969 | 0.964 | 0.955 | 0.864 | 1 | 1.09 | 0.991 | 0.999 | 0.93 | 0.81 | 0.857 | 0.876 | 1.06 | 0.957 | 0.981 | 0.836 | 0.99 | 1.06 |
| NCI-H1734 | 0.811 | 0.847 | – | 0.805 | 0.213 | 0.182 | 0.209 | – | 0.193 | 0.888 | 0.81 | 0.844 | – | 0.868 | 0.74 | 0.715 | 0.572 | 0.753 | – |
| NCI-H1755 | 0.835 | 0.923 | 0.877 | 0.891 | 0.428 | 0.482 | 0.445 | 0.554 | 0.266 | 0.937 | 1.02 | 0.999 | 0.961 | 0.748 | 0.588 | 0.704 | 0.637 | 0.887 | 0.983 |
| NCI-H1915 | 1 | 1.1 | – | 1.08 | 0.775 | 0.817 | 0.721 | – | 0.862 | 0.694 | 0.782 | 0.818 | – | 0.495 | 0.438 | 0.373 | 0.281 | 1.07 | 0.801 |
| NCI-H1944 | 0.823 | 0.877 | 0.884 | 0.862 | 0.671 | 0.648 | 0.646 | 0.872 | 0.777 | 1.01 | 0.995 | 1 | 1.03 | 0.534 | 0.423 | 0.399 | 0.367 | 0.847 | 1.05 |
